# According to paper PMC2685987, “Integrating Statistical Predictions and Experimental Verifications for Enhancing Protein-Chemical Interaction Predictions in Virtual Screening” (PLoS Computational Biology, 2009):
# Molecular target: T1, MBP-ARC (Maltose Binding Protein tagged Androgen Receptor C-termini) (Homo sapiens, UniProt P10275)
# T1 construct: made in house; host or cells: E. coli DH5a
# T1 sequence (P10275 609-919): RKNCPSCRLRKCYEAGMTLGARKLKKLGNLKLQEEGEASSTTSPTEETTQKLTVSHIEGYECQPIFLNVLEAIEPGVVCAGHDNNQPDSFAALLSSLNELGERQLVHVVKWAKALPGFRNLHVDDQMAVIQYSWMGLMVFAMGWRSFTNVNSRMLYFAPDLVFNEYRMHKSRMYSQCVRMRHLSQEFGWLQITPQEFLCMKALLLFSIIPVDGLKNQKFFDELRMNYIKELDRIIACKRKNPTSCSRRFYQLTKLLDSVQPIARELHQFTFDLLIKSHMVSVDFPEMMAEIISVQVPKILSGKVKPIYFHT
# Assay: in vitro binding assay - hydroxyapatite method ([3H]-DHT competition)
# Settings: concentration of unlabeled test compound at which 50% of the [3H]-DHT is still bound to MBP-ARC; 2 nM [3H]-DHT, 50 µg/ml MBP-ARC, three hours
# Experimental: 1.9 The in vitro binding assay - hydroxyapatite method
# 800 mM NaCl, 10 % glycerol, 1mg/ml BSA and 2mM DTT to obtain a 100 l mixture solution.
# mixture solution was incubated at 4 for 3 hours.
# After incubation, BioGel HT (Bio-Rad Laboratories) was added to the solution and incubated on ice
# for 15 minutes, during which vortexing was done every 5 minutes. The incubated solution was centrifuged
# at 1,000 rpm for a minute and a supernatant was removed.
# A wash buﬀer consisting of 40 mM Tris-HCl pH 7.6, 100 mM KCl, 1mM EDTA and 1mM EGTA and
# cooled on ice was added to the precipitate by 1 ml and mixed. The produced solution was centrifuged
# at 1,000 rpm and a supernatant was removed. This process was repeated three times.
# The collected precipitate was suspended in 3 ml Aquasol (New England nuclear Corp.). Radioactivity
# of the suspended solution in a scintillation vial (Perkin Elmer) was measured by a liquid scintillation
# test compounds was regarded as IC50 of the test compound.
smiles,measurement,value
Cc1c(-c2ccc(NC(=O)C(C)(C)C)cc2)nc2ccc(Cl)cn12 [T5853872],IC50,80 µM
